# Structures can show the parent of a compound that is named as a salt.
# Test system: F-2,6-P2 in PANC-1 cells
# Test: Quantification of F-2,6-P2 (Van Schaftingen coupled enzyme assay) in PANC-1 cells
# Type: cell-based, human
# Conditions: Homo sapiens; PANC-1 cells; read-out: IC50 based on quantification of F-2,6-P2
# Excerpt: (§1) A method for quantification of F-2,6-P2 has been described by Van Schaftingen et al. (1982) Eur. J. Biochem. 129, 191-5. This sensitive assay is based on the potent activation of pyrophosphate dependent phosphofructokinase-1 (PPi-PFK) from potato tubers by F-2,6-P2. The use of a series of coupled enzymes leads to a consumption of NADH (nicotinamide adenine dinucleotide) that can be followed spectrophotometrically (an updated protocol is available in Van Schaftingen, (1984) Methods of Enzymatic Analysis (Bergmeyer, H. U., ed.), 3rd edn., vol. 6, pp. 335-341, Verlag Chemie, Weinheim). A protocol for measurements in 96-well microtiter plate format is also available (Bruni et al., (1989) Anal. Biochem. 178, 324-6).
# (§2) The levels of F-2,6-P2 have been determined using the van Shaftingen assay as described in the protocol below, in six different cancer cell lines endogenously expressing varying levels of the different isoforms of PFK-2/BPase-2 (MCF-7, PANC-1, NUGC-3, SW480, SW620 and MIA PaCa-2). All reagents were purchased from commercial sources or prepared in-house.
# Cell line B (PANC-1, human pancreatic carcinoma cell line): PANC-1 cells (ATCC-CRL-1469), lot. no. 58564651. Cells were seeded at a concentration of ˜250 000 cells/mL in 100 μL growth medium (˜25 000 cells/well).
# Growth medium (cell lines B-F): Dulbecco's Modified Eagle's Medium, DMEM, VWR, LONZ12-604F; 10% FBS, Invitrogen, 10270-106.
# (§3) Starvation medium (cell lines A-F): DMEM/F12 without phenol red and glucose free, SVA, 991373; 0.25% FBS, Invitrogen, 10270-106.
# (§4) Induction medium (cell lines A-F): DMEM/F12 without phenol red and glucose free, SVA, 991373; 0.25% FBS, Invitrogen, 10270-106 (same as starvation medium).
# (§5) Cells were seeded in 96-well Corning Costar tissue culture plates (CLS3595, Sigma-Aldrich) using the concentrations specified above for the different cell lines A-F and incubated over night at 37° C. and 5% CO2. Row A in the plate was left empty and the cell lines added to rows B-H. Next day the growth medium was discarded and replaced with 100 μL starvation medium. The plates were incubated for 18 h at 37° C. and 5% CO2. After 18 h of starvation the cells were induced with 100 μL compound or control solutions. Compounds were either tested in two concentrations (50 μM and 10 μM) or in dose response curves starting from 50 μM. The final DMSO concentration in assay plates was 0.5%. Also a dose response curve of a reference inhibitor was included in row H on each plate. All compounds were tested in duplicate plates. Compounds (in 96 well CLS 3365, Sigma-Aldrich plates) were serial diluted in DMSO from 10 mM compound DMSO stock solutions with Janus (automated liquid handling workstation from PerkinElmer). Five μL were transferred to a Greiner deep well plate (736-0155, VWR) with 495 μL starvation medium. The final start concentration of compounds in the dilution plate was 100 μM, 1% DMSO. For compounds tested as single points, 10 mM compound solutions were diluted five fold in DMSO to 2 mM, followed by the transfer of 5 μL to separate dilution plates with 495 μL starvation medium. The final concentrations of compounds in these dilution plates were 100 or 20 μM, respectively, and final concentration of DMSO was 1%. The plates were incubated at 37° C. and 5% CO2 for 1 h, followed by the addition of 10 μL 20 mM D-glucose in starvation medium. Controls, with and without 1 mM glucose, were included in row B. The final assay volume was 210 μL per well. After 2 h of incubation at 37° C. and 5% CO2, the supernatants were discarded and the cells lysed by the addition of 25 μL 250 mM NaOH. The plates were incubated at 37° C. and 5% CO2 for 5 min followed by an addition of 75 μL MilliQ dH2O. The supernatants were further diluted with 210 μL MilliQ dH2O to a final concentration of 20 mM NaOH. 200 μL were transferred to NUNC 96-well plates (7322661, VWR) and the plates were sealed and stored at −20° C. until analysis. […]
row,SMILES,IC50 [µM]
1,"COC(=O)c1ccc(NS(=O)(=O)c2cccc(OC(F)(F)F)c2)cc1O [Example 44, Methyl 2-hydroxy-4-({[3-(trifluoromethoxy)phenyl]sulfonyl}amino)benzoate]",5.8
2,"COC(=O)c1ccc(NS(=O)(=O)c2cccc(C(=O)OC(C)C)c2)cc1O [Example 137, Methyl 2-hydroxy-4-[({3-[(1-methylethoxy)carbonyl]phenyl}sulfonyl)amino]benzoate]",11.1
3,"COC(=O)c1ccc(NS(=O)(=O)c2cc(C(F)(F)F)oc2C)cc1O [Example 10, Methyl 2-hydroxy-4-({[2-methyl-5-(trifluoromethyl)furan-3-yl]sulfonyl}amino)benzoate]",6.7
4,"COC(=O)c1ccc(NS(=O)(=O)c2ccc(C(F)(F)F)cc2)cc1O [Example 16, Methyl 2-hydroxy-4-({[4-(trifluoromethyl)phenyl]sulfonyl}amino)benzoate]",4.6
5,"COC(=O)c1ccc(NS(=O)(=O)Cc2cccc(-c3ccc4c(c3)CCO4)c2)cc1O [Example 122, Methyl 4-({[3-(2,3-dihydro-1-benzofuran-5-yl)benzyl]sulfonyl}amino)-2-hydroxybenzoate]",5.9
6,"COC(=O)c1ccc(NS(=O)(=O)c2cccc(-c3ccc4ncccc4c3)c2)cc1O [Example 91, Methyl 2-hydroxy-4-{[(3-quinolin-6-ylphenyl)sulfonyl]amino}benzoate trifluoroacetate]",4.5

# Now from value to compound:
row,IC50 [µM],SMILES
1,0.8,"COC(=O)c1ccc(NS(=O)(=O)c2cc(Cl)c(Cl)s2)cc1O [Example 27, Methyl 4-{[(4,5-dichloro-2-thienyl)sulfonyl]amino}-2-hydroxybenzoate]"
2,3.6,"COC(=O)c1ccc(NS(=O)(=O)c2ccc(F)c3ccccc23)cc1O [Example 33, Methyl 4-{[(4-fluoro-1-naphthyl)sulfonyl]amino}-2-hydroxybenzoate]"
3,1.8,"O=C(OC1CCN(Cc2ccccc2)C1)c1ccc(NS(=O)(=O)c2c(Cl)sc(Cl)c2Cl)cc1O (stereo not drawn) [Example 204, 1-Benzylpyrrolidin-3-yl 2-hydroxy-4-{[(2,4,5-trichloro-3-thienyl)sulfonyl]amino}benzoate]"
4,0.7,"COCCOC(=O)c1ccc(NS(=O)(=O)c2cccc(-c3ccc4c(c3)CCO4)c2)cc1O [Example 175, 2-Methoxyethyl 4-({[3-(2,3-dihydro-1-benzofuran-5-yl)phenyl]sulfonyl}amino)-2-hydroxybenzoate]"
5,19,"COC(=O)c1ccc(NS(=O)(=O)c2ccc(CNC(=O)c3ccccc3)s2)cc1O [Example 41, Methyl 2-hydroxy-4-{[(5-{[(phenylcarbonyl)amino]methyl}thiophen-2-yl)sulfonyl]amino}benzoate]"
6,19.6,"COC(=O)c1ccc(NS(=O)(=O)c2cc3ccccc3o2)cc1O [Example 9, Methyl 4-[(1-benzofuran-2-ylsulfonyl)amino]-2-hydroxybenzoate]"
7,1.4,"O=C(OCCO)c1ccc(NS(=O)(=O)c2cc(-c3ccccc3)c(Cl)s2)cc1O [Example 217, 2-Hydroxyethyl 4-{[(5-chloro-4-phenyl-2-thienyl)sulfonyl]amino}-2-hydroxybenzoate]"
8,2.8,"COC(=O)c1ccc(NS(=O)(=O)c2cc(-c3cccc(N)c3)c(Cl)s2)cc1O [Example 107, Methyl 4-({[4-(3-aminophenyl)-5-chlorothiophen-2-yl]sulfonyl}amino)-2-hydroxybenzoate trifluoroacetate]"
9,1.2,"COCCOC(=O)c1ccc(NS(=O)(=O)c2cc(-c3ccccc3O)c(Cl)s2)cc1O [Example 133, 2-Methoxyethyl 4-({[5-chloro-4-(2-hydroxyphenyl)-2-thienyl]sulfonyl}amino)-2-hydroxybenzoate]"
10,2.3,"COC(=O)c1ccc(NS(=O)(=O)c2cc(Cl)sc2Cl)cc1O [Example 25, Methyl 4-{[(2,5-dichloro-3-thienyl)sulfonyl]amino}-2-hydroxybenzoate]"

# Same assay, conditions: at 12.5-50 μM in PANC-1 cells
row,SMILES,"inhibition (F-2,6-P2 levels) [%]"
1,"COC(=O)c1ccc(NS(=O)(=O)c2ccc(-c3ccccc3)cc2)cc1O [Example 35, Methyl 4-[(biphenyl-4-ylsulfonyl)amino]-2-hydroxybenzoate]",≥ 50
2,"COC(=O)c1ccc(NS(=O)(=O)c2cc(Cl)c(-c3ccccc3OC)s2)cc1O [Example 207, Methyl 4-({[4-chloro-5-(2-methoxyphenyl)thiophen-2-yl]sulfonyl}amino)-2-hydroxybenzoate]",≥ 50

# Test system: F-2,6-P2 in NUGC-3 cells
# Test: Quantification of F-2,6-P2 (Van Schaftingen coupled enzyme assay) in NUGC-3 cells
# Type: cell-based
# Conditions: Homo sapiens; NUGC-3 cells, under hypoxia (0.6-1% O2); read-out: IC50 based on quantification of F-2,6-P2
# Excerpt: as §1, §2
# Cell line C (NUGC-3, human gastric cancer cell line): NUGC-3 cells (JCRB0822), lot no. 04272009. Growth medium: RPMI1640, #R8758, Sigma-Aldrich; 10% FBS, Invitrogen, 10270-106 or Dulbecco's Modified Eagle's Medium, DMEM, VWR, LONZ12-604F; 10% FBS, Invitrogen, 10270-106. Cells were seeded at a concentration of ˜350 000 cells/mL in 100 μL growth medium (˜35 000 cells/well).
# as §3, §4, §5
row,IC50 [µM],SMILES
1,5.6,"Cn1c(COC(=O)c2ccc(NS(=O)(=O)c3cc(Cl)c(Cl)s3)cc2O)cnc1[N+](=O)[O-] [Example 202, (1-Methyl-2-nitro-1H-imidazol-5-yl)methyl 4-{[(4,5-dichlorothiophen-2-yl)sulfonyl]amino}-2-hydroxybenzoate]"

# Same assay, conditions: Homo sapiens; NUGC-3 cells; read-out: IC50 based on quantification of F-2,6-P2
row,SMILES,IC50 [µM]
1,CC(CCN1CCOCC1)OC(=O)c1ccc(NS(=O)(=O)c2cc(Cl)c(Cl)s2)cc1O (stereo not drawn) [Example 193],1.2
2,"COC(=O)c1ccc(NS(=O)(=O)c2cccc(-c3cc(F)ccc3F)c2)cc1O [Example 153, Methyl 4-{[(2′,5′-difluorobiphenyl-3-yl)sulfonyl]amino}-2-hydroxybenzoate]",5.1
3,"COCC(COC)OC(=O)c1ccc(NS(=O)(=O)c2cc(Cl)cc(Cl)c2)cc1O [Example 191, 2-Methoxy-1-(methoxymethyl)ethyl 4-{[(3,5-dichlorophenyl)sulfonyl]amino}-2-hydroxybenzoate]",1.4

# The next lines start with the values.
row,IC50 [µM],SMILES
1,0.9,"COC(=O)c1ccc(NS(=O)(=O)c2cc(Cl)c(Cl)s2)cc1O [Example 27, Methyl 4-{[(4,5-dichloro-2-thienyl)sulfonyl]amino}-2-hydroxybenzoate]"
2,2.8,"O=C(OCCCN1CCOCC1)c1ccc(NS(=O)(=O)c2cc(-c3ccc4c(c3)OCO4)c(Cl)s2)cc1O [Example 162, 3-Morpholin-4-ylpropyl 4-({[4-(1,3-benzodioxol-5-yl)-5-chloro-2-thienyl]sulfonyl}amino)-2-hydroxybenzoate trifluoroacetate]"
